Laboratory results: US10973863B2, “Method for regulating, preventing and/or treating pulmonary injury” (SINPHAR PHARMACEUTICAL CO., LTD., priority 2017, dated 2021)

What was measured:
Assay type in all cases: cell-based, rat
MMP-12 = assay: Western blot: MMP-12 expression in LPS-treated NR8383 cells; conditions: 0.01 μg/mL LPS; 6.25 to 50 μg/mL; 24 hours
Experimental: (§1) Rat alveolar macrophage NR8383 cells were divided into six groups and separately cultivated with the following media for 24 hours: • (1) Control group: a macrophage growth medium containing 0.01 μg/mL LPS; • (2) Positive control group: a macrophage growth medium containing 0.01 μg/mL LPS and 1 μM Dex; and • (3) Extract A group (including four sub-groups): a macrophage growth medium containing 0.01 μg/mL LPS and the extract A provided by [preparation example A-2-2], wherein the extract A is present in the four sub-groups at a concentration of 6.25, 12.5, 25 and 50 μg/mL respectively.
(§2) Thereafter, the proteins in the cells of each group were extracted and then subjected to a Western blot to measure the expression level of pro-form MMP-9 (i.e., the zymogen form of MMP-9), active-form MMP-9 and MMP-12. The relative expression level of pro-form MMP-9, active-form MMP-9 and MMP-12 of each group was calculated by using the results of the control group as a basis (i.e., the expression level of control group was served as 1-fold).
(§3) Rat alveolar macrophage NR8383 cells were divided into ten groups and separately cultivated with the following media for 24 hours:
(§4) (1) Control group: a macrophage growth medium containing 0.01 μg/mL LPS;
(§5) (2) Positive control group: a macrophage growth medium containing 0.01 μg/mL LPS and 1 μM Dex; […]

MMP-9 = assay: Gelatin zymography: LPS-activated active expression of MMP-9 in NR8383 cells; conditions: Table 5, LPS 1 μg/mL, 24 hours
Source text: As indicated above, when an inflammatory response occurs in animal's pulmonary tissue, the active inflammatory cells will secret MMPs that will destroy the pulmonary tissue structure, cause more serious pulmonary injury, and lead to the decrement in or the loss of pulmonary functions. […]
Thereafter, the medium of each group was collected and respectively subjected to the following procedures. A 10% polyacrylamide gel containing 0.2% gelatin was used to carry out the sodium dodecyl sulfate polyacrylamide gel electrophoresis (SDS-PAGE). After the electrophoresis was completed, the gel was sequentially soaked in 2.5% Triton X-100 solution for 90 minutes to remove SDS, soaked in distillation-distillation water (ddH2O) for 30 minutes, and placed in a reaction solution (50 mM Tris-HCl buffer containing 10 mM CaCl2 and 0.02% NaN3) at a temperature of 37° C. for 18 hours. After the foregoing reaction was completed, the gel was stained by a Coomassie blue staining solution, and the image of stained gel was taken and subjected to an image analysis. The image intensity (the image intensity was calculated based on the size of area and the shade of color) of highlight band (i.e., the gelatin in this area was degraded by MMPs, wherein the area locating around 95 kD molecular weight) on the gel of each group can reflect the active expression of MMP-9 of rat alveolar macrophage NR8383 cells under different conditions (the relative active expression of MMP-9 was calculated by serving the results of the blank group as 0% and serving that of the control group as 100%).
Rat alveolar macrophage NR8383 cells were divided into twenty-eight groups and separately cultivated with the following media for 24 hours: • (1) Blank group: a macrophage growth medium; • (2) Control group: a macrophage growth medium containing 1 μg/mL LPS; • (3) Positive control group: a macrophage growth medium containing 1 μg/mL LPS and 5 μM Prednisolone (a type of corticosteroid; abbreviated as “Pred”; purchased from Sigma-Aldrich); • (4) Extract C (including five sub-groups): a macrophage growth medium containing 1 μg/mL LPS and the extract C provided by [preparation example A-3-2], wherein the extract C is present in the five sub-groups at a concentration of […] respectively; • (5) Extract D (including five sub-groups): a macrophage growth medium containing 1 μg/mL UPS and the extract D provided by [preparation example A-4-2], wherein the extract D is present in the five sub-groups at a concentration of 0.78, 1.56, 3.13, 6.25 and 12.5 respectively; • (6) Extract E (including five sub-groups): a macrophage growth medium containing 1 μg/mL LPS and the extract E provided from [preparation example A-4-3], wherein the extract E is present in the five sub-groups at a concentration of 0.78, 1.56, 3.13, […], and 12.5 respectively; • (7) DATA group (including five sub-groups): a macrophage growth medium containing 1 μg/mL LPS and the dehydrotrametenolic acid (DTTA) provided by [preparation example C-1], wherein the dehydrotrametenolic acid (DTTA) is present in the five sub-groups at a concentration of 0.39, 0.78, 1.56, 3.13 and 6.25 μg/mL respectively; and • (8) PAA group (including live sub-groups): a macrophage growth medium containing 1 μg/mL LPS and the poricoic acid A (PAA) provided from [preparation example C-1], wherein the poricoic acid A (PAA) is present in the five sub-groups at a concentration of 6.25, 12.5, 25, 50 and 100 respectively.
Thereafter, the medium of each group was collected and analyzed by the analyzing procedures same as that of (1-1).

active-form MMP-9 = assay: Western blot: active-form MMP-9 expression in LPS-treated NR8383 cells; conditions: 0.01 μg/mL LPS; 6.25, 12.5, 25 and 50 μg/mL; 24 hours
Experimental: as §1, §2, §3, §4, §5

Compound: C=C(CC[C@@H](C(=O)O)[C@H]1[C@H](O)C[C@@]2(C)C3=CC[C@@H](C(=C)C)[C@](C)(CCC(=O)O)C3=CC[C@]12C)C(C)C [PAA, poricoic acid A]
- Expression level of MMP-12 (in words) (MMP-12): effective in inhibiting
- Relative active expression of MMP-9 (%) (MMP-9; 6.25 μg/mL): 82%
- Relative active expression of MMP-9 (%) (MMP-9; 12.5 μg/mL): 77%
- Relative active expression of MMP-9 (%) (MMP-9; 25 μg/mL): 60%
- Relative active expression of MMP-9 (%) (MMP-9; 50 μg/mL): 35%
- Relative active expression of MMP-9 (%) (MMP-9; 100 μg/mL): 18%
- Inhibitory rate on active-form MMP-9 (highest over tested concentrations) (active-form MMP-9): up to 44%
